Measurements as given in publication PMC3210919 (Biochemistry, 2011).
“And” between values parts separate entries of the source, which are not always exact repeats. Identical values can stand only once. Like-named read-outs stand apart in the source and are kept apart here.

Columns and labels:
NC(=O)OP(=O)(O)O = assay: purified protein, by the assay type; settings: no free biotin, pH 7.5, 25.0 °C
wild-type RePC [1] = target: T1, wild-type RePC (Rhizobium etli, UniProt Q2K340); assay: Coupling study: initial rates of oxaloacetate formation at varying pyruvate; settings: pyruvate varied; for kcat, oxaloacetate formation: 15 mM HCO3^−
[2] = test system: wild-type RePC (pyruvate carboxylase from R. etli); assay: Pyruvate carboxylation activity, malate dehydrogenase coupled assay; type: biochemical, Rhizobium etli
wild-type RePC [3] = target: T1, wild-type RePC; assay: Coupling study: initial rates of Pi release at varying pyruvate; type: biochemical; settings: for Ka pyruvate, stimulation of Pi release: 15 mM HCO3^−
wild-type RePC [4] = target: T1, wild-type RePC; type: biochemical
K1119Q RePC mutant [5] = target: T2, K1119Q RePC mutant (Rhizobium etli, UniProt Q2K340, K1119Q)
wild-type RePC [6] = target: T1, wild-type RePC; type: biochemical; settings: for % kcat of pyruvate carboxylation: phosphoryl donor varied, 0.25 mM acetyl-CoA
T882A RePC mutant [7] = target: T3, T882A RePC mutant (Rhizobium etli, UniProt Q2K340, T882A)
K1119Q RePC mutant [8] = target: T2, K1119Q RePC mutant; assay: HCO3^−-dependent ATPase reaction, K1119Q mutant; type: biochemical
wild-type RePC [9] = target: T1, wild-type RePC; type: biochemical; remark: listed apart in the source
wild-type RePC [10] = target: T1, wild-type RePC; assay: HCO3^−-dependent ATPase activity in the absence of pyruvate; type: biochemical
T882A RePC mutant [11] = target: T3, T882A RePC mutant; remark: listed apart in the source
[12] = labelled substrate varied, others saturating, pH 7.5, 25° C, 0.25 mM acetyl-CoA
[13] = saturating acetyl-CoA and substrates
[14] = acetyl-CoA varied, 0.5 mM free Mg^2+, Hill fit eqn (4)
[15] = acetyl-CoA varied, 1.0 mM free Mg^2+, Hill fit eqn (4)
[16] = acetyl-CoA varied, 3.0 mM free Mg^2+, Hill fit eqn (4)
[17] = wild-type, (+) 10 mM free biotin

T882A RePC mutant (Rhizobium etli CFN 42; T882A)
Km (NC(=O)OP(=O)(O)O; other: T882A): 3400 ± 500 µM | kcat (NC(=O)OP(=O)(O)O; other: T882A): 0.4 s⁻¹ | kcat/Km (NC(=O)OP(=O)(O)O; other: T882A): 117 M⁻¹ s⁻¹

CC(=O)C(=O)O [pyruvate]
Km pyruvate (oxaloacetate formation) without acetyl-CoA, % of (+) acetyl-CoA (wild-type RePC [1]): 2% | kcat oxaloacetate formation without acetyl-CoA, % of (+) acetyl-CoA (wild-type RePC [1]): 0.5% | kcat/Km (oxaloacetate formation) without acetyl-CoA, % of (+) acetyl-CoA (wild-type RePC [1]): 24% | kcat, oxaloacetate formation (wild-type RePC [1]; (+) 0.25 mM acetyl-CoA): 5.17 ± 0.13 s⁻¹ | kcat, oxaloacetate formation (wild-type RePC [1]; (−) acetyl-CoA): 0.0253 ± 0.0005 s⁻¹ | Km [2, 12]: 150 ± 10 µM | kcat [2, 12]: 440 ± 8 ^d min^−1 | Vmax ([2]; pyruvate varied, 0.7 mM free Mg^2+): 0.69 ± 0.02 µmol/mg/min | Vmax ([2]; pyruvate varied, 3.0 mM free Mg^2+): 3.18 ± 0.08 µmol/mg/min | Vmax ([2]; pyruvate varied, 5.0 mM free Mg^2+): 3.98 ± 0.04 µmol/mg/min | Vmax ([2]; pyruvate varied, […] free Mg^2+): 1.41 ± 0.01 µmol/mg/min | Km ([2]; read-out: Km pyruvate, pyruvate varied, 0.7 mM free Mg^2+): 3100 ± 200 µM | Km ([2]; read-out: Km pyruvate, pyruvate varied, 3.0 mM free Mg^2+): 2650 ± 40 µM | Km ([2]; read-out: Km pyruvate, pyruvate varied, 5.0 mM free Mg^2+): 150 ± 10 µM | Km ([2]; read-out: Km pyruvate, pyruvate varied, […] free Mg^2+): 3000 ± 400 µM | Ka pyruvate, stimulation of Pi release (wild-type RePC [3]; (+) 0.25 mM acetyl-CoA): 0.16 ± 0.01 mM | Ka pyruvate, stimulation of Pi release (wild-type RePC [3]; (−) acetyl-CoA): 0.048 ± 0.008 mM | fold increase of the rates of Pi release from the BC domain (wild-type RePC [3]; low concentrations of pyruvate, absence of acetyl-CoA): 120-175 fold | fold stimulation of the rate of Pi release from the BC domain (wild-type RePC [3]; lowest concentrations of pyruvate, presence of acetyl-CoA): 300-500 fold | Ka pyruvate (Pi release) without acetyl-CoA, % of (+) acetyl-CoA (wild-type RePC [3]; pyruvate varied): 30% | kcat Pi release without acetyl-CoA, % of (+) acetyl-CoA (wild-type RePC [3]; pyruvate varied): 5.8% | kcat/Ka (Pi release) without acetyl-CoA, % of (+) acetyl-CoA (wild-type RePC [3]; pyruvate varied): 19% | limiting value of the ratio oxaloacetate formation / Pi release (wild-type RePC [3]; saturating pyruvate and acetyl-CoA): 1.08 | fold increase in the rate of Pi release (wild-type RePC [3]; sub-saturating concentrations of pyruvate): ~300 fold

O=C(O)CC(=O)C(=O)O [oxaloacetate]
% kcat of pyruvate carboxylation (wild-type RePC [4]; saturating substrates and activators, 1 mM oxamate, pH 7.5, 25° C): 2.0%

K1119Q RePC mutant (Rhizobium etli CFN 42; K1119Q)
Km (NC(=O)OP(=O)(O)O; other: K1119Q): 880 ± 70 µM

NC(=O)OP(=O)(O)O [Carbamoyl phosphate]
% wild-type kcat/Km (K1119Q RePC mutant [5]; (+) 10 mM free biotin): 45% | % wild-type kcat/Km (K1119Q RePC mutant [5]; no free biotin): 17% | % kcat of pyruvate carboxylation (wild-type RePC [6]; pH 7.5, 25° C): 0.6% | kcat (wild-type RePC [6]; wild-type, no free biotin, pH 7.5, 25° C, […] MgADP, 0.25 mM acetyl-CoA (Table 7)): 0.04 ± 0.0017 s⁻¹ | % wild-type kcat/Km (T882A RePC mutant [7]; (+) 10 mM free biotin): 920% | % wild-type kcat/Km (T882A RePC mutant [7]; no free biotin): 750%

O=C(O)CCCC[C@@H]1SC[C@@H]2NC(=O)N[C@@H]21 [biotin]
fold increase in the catalytic efficiency (K1119Q RePC mutant [8]; 10 mM free biotin added): ~1000 fold | fold decrease in the Km for MgATP (K1119Q RePC mutant [8]; addition of 10 mM biotin): 35 fold

CC(=O)SCCNC(=O)CCNC(=O)[C@H](O)C(C)(C)COP(=O)(O)OP(=O)(O)OC[C@H]1O[C@@H](n2cnc3c(N)ncnc32)[C@H](O)[C@@H]1OP(=O)(O)O [acetyl-CoA, acetyl-coenzyme A, reference compound]
kcat (specific activity), (+) acetyl-CoA (wild-type RePC [4]; [13]): 0.15 ± 0.00067 s⁻¹ | % rate (−) acetyl-CoA compared to the specific activity in the presence of acetyl-CoA (wild-type RePC [4]; saturating substrates): 67% | n acetyl-CoA (Hill coefficient) ([2]; acetyl-CoA varied, 0.5 mM free Mg^2+): 2.0 ± 0.3 | Ka acetyl-CoA [2, 14]: 38 ± 2 µM | Vmax [2, 14]: 1.16 ± 0.07 µmol/mg/min | n acetyl-CoA (Hill coefficient) ([2]; acetyl-CoA varied, 1.0 mM free Mg^2+): 2.8 ± 0.5 | Ka acetyl-CoA [2, 15]: 26 ± 2 µM | Vmax [2, 15]: 1.39 ± 0.06 µmol/mg/min | n acetyl-CoA (Hill coefficient) ([2]; acetyl-CoA varied, 3.0 mM free Mg^2+): 2.6 ± 0.2 | Ka acetyl-CoA [2, 16]: 10 µM and 10.0 ± 0.4 µM | Vmax [2, 16]: 5.7 ± 0.1 µmol/mg/min | Vmax ([2]; acetyl-CoA varied, […] free Mg^2+, Hill fit eqn (4)): 2.59 ± 0.08 µmol/mg/min | overall fold decrease in the Ka for acetyl-CoA ([2]; addition of 3.0 mM free Mg^2+): 3.8 fold | kcat (specific activity), (+) acetyl-CoA [2, 13]: 11.7 ± 0.333 s⁻¹ | % rate (−) acetyl-CoA compared to the specific activity in the presence of acetyl-CoA ([2]; saturating substrates): 9% | decrease in rate caused by lack of acetyl-CoA (wild-type RePC [9]; full reverse reaction): 78% | kcat (specific activity), (+) acetyl-CoA (wild-type RePC [9]; [13]): 0.0139 ± 8.3e-05 s⁻¹ | % rate (−) acetyl-CoA compared to the specific activity in the presence of acetyl-CoA (wild-type RePC [9]; saturating substrates): 18% | effect of acetyl-CoA on the rate of MgADP phosphorylation by carbamoyl phosphate (wild-type RePC [6]): no effect | kcat (specific activity), (+) acetyl-CoA (wild-type RePC [6]; [13]): 0.04 ± 0.0017 s⁻¹ | % rate (−) acetyl-CoA compared to the specific activity in the presence of acetyl-CoA (wild-type RePC [6]; saturating substrates): 100% | decrease in rate caused by lack of acetyl-CoA (wild-type RePC [10]; MgATP hydrolysis): 82% | kcat (specific activity), (+) acetyl-CoA (wild-type RePC [10]; [13]): 0.043 ± 0.0015 s⁻¹ | % rate (−) acetyl-CoA compared to the specific activity in the presence of acetyl-CoA (wild-type RePC [10]; saturating substrates): 22%

Nc1ncnc2c1ncn2[C@@H]1O[C@H](COP(=O)(O)OP(=O)(O)O)[C@@H](O)[C@H]1O [MgADP]
% kcat of pyruvate carboxylation (wild-type RePC [9]; MgADP varied, pH 7.5, 25° C, 0.25 mM acetyl-CoA): 0.2%

[Mg+2] [Mg^2+]
concentration of free Mg^2+ that inhibited pyruvate carboxylation [2]: > 7 mM | fold increase in kcat ([2]; Mg^2+ increased from 0.5 to 3 mM, acetyl-CoA varied): 4.9 fold | Ka for Mg^2+ for the effect on Vmax ([2]; estimated from replot of apparent 1/Vmax vs. 1/[Mg^2+], pyruvate varied): ≈ 40 mM | inhibition of the MgADP phosphorylation reaction by Mg^2+ (wild-type RePC [6]; up to 11 mM Mg^2+): no inhibition | concentration of free Mg^2+ that inhibited MgATP-cleavage (wild-type RePC [10]): > 7 mM

NC(=O)C(=O)O [oxamate]
fold stimulation of the rate of oxaloacetate decarboxylation compared to the full reverse reaction (wild-type RePC [4]; saturating oxamate): 11 fold

CC(=O)OP(=O)(O)O [Acetyl phosphate]
% wild-type kcat/Km (K1119Q RePC mutant [5]; (+) 10 mM free biotin): 57% | Km (K1119Q RePC mutant [5]; (+) 10 mM free biotin): 370 ± 30 µM | kcat (K1119Q RePC mutant [5]; (+) 10 mM free biotin): 0.00733 ± 0.00017 s⁻¹ | % wild-type kcat/Km (K1119Q RePC mutant [5]; no free biotin): 95% | Km (K1119Q RePC mutant [5]; no free biotin): 290 ± 10 µM | kcat (K1119Q RePC mutant [5]; no free biotin): 0.00783 ± 0.00017 s⁻¹ | % kcat of pyruvate carboxylation (wild-type RePC [6]; pH 7.5, 25° C): 0.1% | Km (wild-type RePC [6]; [17]): 140 ± 40 µM | kcat (wild-type RePC [6]; [17]): 0.00483 ± 3.3e-05 s⁻¹ | % wild-type kcat/Km (T882A RePC mutant [7]; (+) 10 mM free biotin): 40% | Km (T882A RePC mutant [7]; (+) 10 mM free biotin): 140 ± 10 µM | kcat (T882A RePC mutant [7]; (+) 10 mM free biotin): 0.002 ± 0.00017 s⁻¹ | % wild-type kcat/Km (T882A RePC mutant [7]; no free biotin): 80% | Km (T882A RePC mutant [7]; no free biotin): 220 ± 10 µM | kcat (T882A RePC mutant [7]; no free biotin): 0.005 ± 0.00017 s⁻¹

Nc1ncnc2c1ncn2[C@@H]1O[C@H](COP(=O)(O)OP(=O)(O)OP(=O)(O)O)[C@@H](O)[C@H]1O [MgATP]
% wild-type kcat/Km (K1119Q RePC mutant [8]; (+) 10 mM free biotin): 40% | % wild-type kcat/Km (K1119Q RePC mutant [8]; no free biotin): 0.06% | kcat (K1119Q RePC mutant [8]; no free biotin): 0.00137 ± 1.7e-05 s⁻¹ | Km [2, 12]: 145 ± 9 µM | kcat [2, 12]: 396 ± 10 ^d min^−1 | % wild-type kcat/Km (T882A RePC mutant [11]; (+) 10 mM free biotin): 260% | % wild-type kcat/Km (T882A RePC mutant [11]; no free biotin): 225% | kcat (T882A RePC mutant [11]; no free biotin): 0.233 ± 0.033 s⁻¹ | % kcat of pyruvate carboxylation (wild-type RePC [10]; MgATP varied, pH 7.5, 25° C, 0.25 mM acetyl-CoA): 0.6% | kcat (wild-type RePC [10]; wild-type, no free biotin, pH 7.5, 25° C, 15 mM HCO3^−, 7.5 mM MgCl2, 0.25 mM acetyl-CoA): 0.043 ± 0.0015 s⁻¹
